Assay results from patent US6355799B1, “Substituted benzene compounds, process for their preparation, and herbicidal and defoliant compositions containing them” (ISK Americas Incorporated, priority 1997, dated 2002).

Experiments:
Type in all cases: in vivo
[1] = test system: redroot pigweed (Amaranthus retroflexus, AMARE); experiment: Pre-emerge test, greenhouse herbicide activity screening; conditions: pre-emerge, phytotoxicity rating 0-100 at 14 days after application
In short: (§1)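 Sandy loam pots; pre-emerge: sown 1 d pre-spray, surface-watered after, then bottom-watered. Post-emerge: sown 8–21 d before, 2–3 leaf stage, + 0.25% v/v NIS, bottom-watered. Acetone, 187 l/ha track spray, 15–1000 g ai/ha. 0–100 injury score, day 14.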

[2] = test system: barnyardgrass (Echinochloa crus-galli, ECHCG); experiment: Post-emerge test, greenhouse herbicide activity screening; conditions: post-emerge, phytotoxicity rating 0-100 at 14 days after application
Description: (§2) A standard greenhouse herbicide activity screening system was used to evaluate the herbicidal efficacy and crop safety of these test compounds. Seven broadleaf weed species including redroot pigweed (Amaranthus retroflexus, AMARE, velvetleaf (Abutilon theophrasti, ABUTH), sicklepod (Cassia obtusifolia, CASOB), ivyleaf morningglory (Ipomoea hederacea, IPOHE), lambsquarters (Chenopodium album, CHEAL), common ragweed (Ambrosia artemisizfolia L., AMBEL), and cocklebur (Xanthium strumarium, XANST) were used as test species. Four grass weed species including green foxtail (Setaria viridis, SETVI), barnyardgrass (Echinochloa crus-galli, ECHCG), johnsongrass (Sorghum halepense, SORHA), and large crabgrass (Digitaria sanguinalis, DIGSA) were also used. In addition, three crop species, field corn (Zea mays L., var. Dekalb 535, CORN), soybean (Glycine max L., var. Pella 86, SOY), and is upland rice (Oryza sp., var. Tebonnet, RICE) were included.
(§3) All plants were grown in 10 cm square plastic pots which were filled with a sandy loam soil mix. For pre-emerge tests, seeds were planted one day prior to application of the test compounds. For post-emerge tests, seeds were planted 8-21 days prior to the test to allow emergence and good foliage development prior to application of the test substances. At the time of the post-emerge application, plants of all species were usually at the 2-3 leaf stage of development.
(§4) All test compounds Were dissolved in acetone and applied to the test units in a volume of 187 l /ha. Test materials were applied at rates ranging from 15 g ai/ha to 1000 g ai/ha using a track sprayer equipped with a TJ8001E even flow flat fan spray nozzle. Plants were arranged on a shelf so that the top of the canopy (post-emerge) or top of the soil surface (pre-emerge) was 40-45 cm below the nozzle. Pressurized air was used to force the test solution through the nozzle as it was mechanically advanced (via electrically driven chain drive) over the top of all test plants/pots. This application simulates a typical commercial field herbicide application.
(§5) In the post-emerge test, a commercial non-ionic surfactant was also included (0.25% v/v) to enhance wetting of the leaf surfaces of target plants. Immediately after application, test units of the pre-emerge applications were watered at the soil surface to incorporate the test materials. Subsequently, these test units were bottom-watered. Post-emerge test units were always bottom-watered.
(§6) At 14 days after application of the test materials, phytotoxicity ratings were recorded. A rating scale of 0-100 was used as previously described in Research Methods in Weed Science, 2nd edition, B. Truelove, Ed., Southern Weed Science Society, Auburn University, Auburn, Ala. 1977. Briefly, “0” corresponds to no damage and “100” corresponds to complete death of all plants in the test unit. This scale was used both to determine efficacy against weed species and damage to crop species. Herbicide activity data for various compounds of this invention, which are shown by compound No. in Tables 1-8, are shown in Tables 11 and 12.

[3] = test system: sicklepod (Cassia obtusifolia, CASOB); experiment: as above; conditions: post-emerge, phytotoxicity rating 0-100 at 14 days after application
Description: as §2, §3, §4, §5, §6

[4] = test system: velvetleaf (Abutilon theophrasti, ABUTH); experiment: as above; conditions: post-emerge, phytotoxicity rating 0-100 at 14 days after application
Description: as §2, §3, §4, §5, §6

[5] = test system: large crabgrass (Digitaria sanguinalis, DIGSA); experiment: as above; conditions: post-emerge, phytotoxicity rating 0-100 at 14 days after application
Description: as §2, §3, §4, §5, §6

[6] = test system: ivyleaf morningglory (Ipomoea hederacea, IPOHE); experiment: as above; conditions: post-emerge, phytotoxicity rating 0-100 at 14 days after application
Description: as §2, §3, §4, §5, §6

[7] = test system: lambsquarters (Chenopodium album, CHEAL); experiment: as above; conditions: post-emerge, phytotoxicity rating 0-100 at 14 days after application
Description: as §2, §3, §4, §5, §6

[8] = test system: redroot pigweed (Amaranthus retroflexus, AMARE); experiment: as above; conditions: post-emerge, phytotoxicity rating 0-100 at 14 days after application
Description: as §2, §3, §4, §5, §6

[9] = test system: green foxtail (Setaria viridis, SETVI); experiment: as above; conditions: post-emerge, phytotoxicity rating 0-100 at 14 days after application
Description: as §2, §3, §4, §5, §6

[10] = test system: field corn (Zea mays L., var. Dekalb 535, CORN); experiment: Post-emerge test, crop safety; conditions: post-emerge, crop damage rating 0-100 at 14 days after application
In short: as §1

[11] = test system: upland rice (Oryza sp., var. Tebonnet, RICE); experiment: Post-emerge test, crop safety; conditions: post-emerge, crop damage rating 0-100 at 14 days after application
In short: as §1

[12] = test system: barnyardgrass (Echinochloa crus-galli, ECHCG); experiment: Pre-emerge test, greenhouse herbicide activity screening; conditions: pre-emerge, phytotoxicity rating 0-100 at 14 days after application
Description: as §2, §3, §4, §5, §6

[13] = test system: sicklepod (Cassia obtusifolia, CASOB); experiment: as above; conditions: pre-emerge, phytotoxicity rating 0-100 at 14 days after application
Description: as §2, §3, §4, §5, §6

[14] = test system: velvetleaf (Abutilon theophrasti, ABUTH); experiment: as above; conditions: pre-emerge, phytotoxicity rating 0-100 at 14 days after application
Description: as §2, §3, §4, §5, §6

[15] = test system: large crabgrass (Digitaria sanguinalis, DIGSA); experiment: as above; conditions: pre-emerge, phytotoxicity rating 0-100 at 14 days after application
Description: as §2, §3, §4, §5, §6

[16] = test system: ivyleaf morningglory (Ipomoea hederacea, IPOHE); experiment: as above; conditions: pre-emerge, phytotoxicity rating 0-100 at 14 days after application
Description: as §2, §3, §4, §5, §6

[17] = test system: lambsquarters (Chenopodium album, CHEAL); experiment: as above; conditions: pre-emerge, phytotoxicity rating 0-100 at 14 days after application
Description: as §2, §3, §4, §5, §6

[18] = test system: green foxtail (Setaria viridis, SETVI); experiment: as above; conditions: pre-emerge, phytotoxicity rating 0-100 at 14 days after application
Description: as §2, §3, §4, §5, §6

[19] = test system: field corn (Zea mays L., var. Dekalb 535, CORN); experiment: Pre-emerge test, crop safety; conditions: crop damage, pre-emerge, phytotoxicity rating 0-100 at 14 days after application
In short: (§7)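 Plants grown in 10 cm pots of sandy loam mix received acetone-dissolved compounds through a moving flat-fan nozzle. Doses ranged from 15 to 1000 g ai/ha. Pre-emerge pots were seeded one day earlier, post-emerge pots 8–21 days earlier. Fourteen days on, each pot was graded 0–100 for damage.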

[20] = test system: upland rice (Oryza sp., var. Tebonnet, RICE); experiment: Pre-emerge test, crop safety; conditions: crop damage, pre-emerge, phytotoxicity rating 0-100 at 14 days after application
In short: as §7

Row | SMILES | Pre-emerge Herbicidal Activity AMARE ([1]; rate 63 g ai/ha) | Pre-emerge Herbicidal Activity AMARE ([1]; rate 250 g ai/ha) | Post-emerge Herbicidal Activity ECHCG ([2]; 63 g ai/ha) | Post-emerge Herbicidal Activity ECHCG ([2]; 250 g ai/ha) | Post-emerge Herbicidal Activity CASOB ([3]; 63 g ai/ha) | Post-emerge Herbicidal Activity CASOB ([3]; 250 g ai/ha) | Post-emerge Herbicidal Activity ABUTH ([4]; 63 g ai/ha) | Post-emerge Herbicidal Activity ABUTH ([4]; 250 g ai/ha) | Post-emerge Herbicidal Activity DIGSA ([5]; 63 g ai/ha) | Post-emerge Herbicidal Activity DIGSA ([5]; 250 g ai/ha) | Post-emerge Herbicidal Activity IPOHE ([6]; 63 g ai/ha) | Post-emerge Herbicidal Activity IPOHE ([6]; 250 g ai/ha) | Post-emerge Herbicidal Activity CHEAL ([7]; 63 g ai/ha) | Post-emerge Herbicidal Activity CHEAL ([7]; 250 g ai/ha) | Post-emerge Herbicidal Activity AMARE ([8]; 63 g ai/ha) | Post-emerge Herbicidal Activity AMARE ([8]; 250 g ai/ha) | Post-emerge Herbicidal Activity SETVI ([9]; 63 g ai/ha) | Post-emerge Herbicidal Activity SETVI ([9]; 250 g ai/ha) | Post-emerge Herbicidal Activity CORN ([10]; 63 g ai/ha) | Post-emerge Herbicidal Activity CORN ([10]; 250 g ai/ha) | also measured
1 | Cc1cc(C)c(COC(=O)Nc2c(C)c(Cl)cc(F)c2-n2c(=O)cc(C(F)(F)F)n(C)c2=O)c(C)c1 [4-69] | 30 | 80 | 20 | 40 | 40 | 70 | 100 | 100 | 20 | 50 | 70 | 100 | 90 | 100 | 100 | 100 | 40 | 80 | 5 | 35 | Post-emerge Herbicidal Activity RICE ([11]; 63 g ai/ha): 0; Post-emerge Herbicidal Activity RICE ([11]; 250 g ai/ha): 40; Pre-emerge Herbicidal Activity ECHCG ([12]; rate 63 g ai/ha): 30; Pre-emerge Herbicidal Activity ECHCG ([12]; rate 250 g ai/ha): 70; Pre-emerge Herbicidal Activity CASOB ([13]; rate 63 g ai/ha): 0; Pre-emerge Herbicidal Activity CASOB ([13]; rate 250 g ai/ha): 50; Pre-emerge Herbicidal Activity ABUTH ([14]; rate 63 g ai/ha): 80; Pre-emerge Herbicidal Activity ABUTH ([14]; rate 250 g ai/ha): 90; Pre-emerge Herbicidal Activity DIGSA ([15]; rate 63 g ai/ha): 100; Pre-emerge Herbicidal Activity DIGSA ([15]; rate 250 g ai/ha): 100; Pre-emerge Herbicidal Activity IPOHE ([16]; rate 63 g ai/ha): 0; Pre-emerge Herbicidal Activity IPOHE ([16]; rate 250 g ai/ha): 40; Pre-emerge Herbicidal Activity CHEAL ([17]; rate 63 g ai/ha): 70; Pre-emerge Herbicidal Activity CHEAL ([17]; rate 250 g ai/ha): 90; Pre-emerge Herbicidal Activity SETVI ([18]; rate 63 g ai/ha): 95; Pre-emerge Herbicidal Activity SETVI ([18]; rate 250 g ai/ha): 100; Pre-emerge Herbicidal Activity CORN ([19]; rate 63 g ai/ha): 0; Pre-emerge Herbicidal Activity CORN ([19]; rate 250 g ai/ha): 0; Pre-emerge Herbicidal Activity RICE ([20]; rate 63 g ai/ha): 10; Pre-emerge Herbicidal Activity RICE ([20]; rate 250 g ai/ha): 30
2 | Cc1c(Cl)cc(F)c(-n2c(=O)cc(C(F)(F)F)n(C)c2=O)c1NC(=O)OCc1cccc([N+](=O)[O-])c1 [4-67] | 100 | 100 | 40 | 70 | 100 | 100 | 100 | 100 | 70 | 80 | 100 | 100 | 100 | 100 | 100 | 100 | 90 | 90 | 55 | 70 | Post-emerge Herbicidal Activity RICE ([11]; 63 g ai/ha): 50; Post-emerge Herbicidal Activity RICE ([11]; 250 g ai/ha): 70; Pre-emerge Herbicidal Activity ECHCG ([12]; rate 63 g ai/ha): 40; Pre-emerge Herbicidal Activity ECHCG ([12]; rate 250 g ai/ha): 80; Pre-emerge Herbicidal Activity CASOB ([13]; rate 63 g ai/ha): 40; Pre-emerge Herbicidal Activity CASOB ([13]; rate 250 g ai/ha): 60; Pre-emerge Herbicidal Activity ABUTH ([14]; rate 63 g ai/ha): 100; Pre-emerge Herbicidal Activity ABUTH ([14]; rate 250 g ai/ha): 100; Pre-emerge Herbicidal Activity DIGSA ([15]; rate 63 g ai/ha): 100; Pre-emerge Herbicidal Activity DIGSA ([15]; rate 250 g ai/ha): 100; Pre-emerge Herbicidal Activity IPOHE ([16]; rate 63 g ai/ha): 80; Pre-emerge Herbicidal Activity IPOHE ([16]; rate 250 g ai/ha): 90; Pre-emerge Herbicidal Activity CHEAL ([17]; rate 63 g ai/ha): 100; Pre-emerge Herbicidal Activity CHEAL ([17]; rate 250 g ai/ha): 100; Pre-emerge Herbicidal Activity SETVI ([18]; rate 63 g ai/ha): 90; Pre-emerge Herbicidal Activity SETVI ([18]; rate 250 g ai/ha): 100; Pre-emerge Herbicidal Activity CORN ([19]; rate 63 g ai/ha): 5; Pre-emerge Herbicidal Activity CORN ([19]; rate 250 g ai/ha): 15; Pre-emerge Herbicidal Activity RICE ([20]; rate 63 g ai/ha): 60; Pre-emerge Herbicidal Activity RICE ([20]; rate 250 g ai/ha): 40
